ChEMBL document CHEMBL5584294, “Adpressins A-G: Oligophenalenone Dimers from Talaromyces adpressus” (J Nat Prod, 2024)

Key:
T-cell [1] = assay: Immunosuppressive activity in BALB/c mouse T-lymphocytes assessed as inhibition of ConA-induced cell proliferation pretreated with Concanavalin A for 24 hrs followed by compound addition and measured after 48 hrs by CCK-8 assay; assay type: functional, cell-based
B-cell line = assay: Immunosuppressive activity in BALB/c mouse B-lymphocytes assessed as inhibition of LPS-induced cell proliferation pretreated with LPS for 24 hrs followed by compound addition and measured after 48 hrs by CCK-8 assay; assay type: functional, cell-based
T-cell [2] = assay: Immunosuppressive activity in BALB/c mouse T-lymphocytes assessed as reduction in ConA-induced CD4 subpopulation by measuring CD3positiveCD4negative cells at 5 uM pretreated with Concanavalin A for 24 hrs followed by compound addition and measured after 48 hrs by flow cytometry analysis (reference value: 12.2%); assay type: functional; parameters: scale not given: the % may be the effect or the level left
T-cell [3] = assay: Immunosuppressive activity in BALB/c mouse T-lymphocytes assessed as reduction in ConA-induced CD8 subpopulation by measuring CD3positiveCD8positive cells at 5 uM pretreated with Concanavalin A for 24 hrs followed by compound addition and measured after 48 hrs by flow cytometry analysis (reference value: 29.1%); assay type: functional; parameters: scale not given: the % may be the effect or the level left
T-cell [4] = assay: Immunosuppressive activity in BALB/c mouse T-lymphocytes assessed as reduction in ConA-induced CD8 subpopulation by measuring CD3negativeCD8negative cells at 5 uM pretreated with Concanavalin A for 24 hrs followed by compound addition and measured after 48 hrs by flow cytometry analysis (reference value: 0%); assay type: functional; parameters: scale not given: the % may be the effect or the level left
T-cell [5] = assay: Immunosuppressive activity in BALB/c mouse T-lymphocytes assessed as reduction in ConA-induced CD4 subpopulation by measuring CD3negativeCD4positive cells at 10 uM pretreated with Concanavalin A for 24 hrs followed by compound addition and measured after 48 hrs by flow cytometry analysis (reference value: 0%); assay type: functional; parameters: scale not given: the % may be the effect or the level left
T-cell [6] = assay: Immunosuppressive activity in BALB/c mouse T-lymphocytes assessed as reduction in ConA-induced CD4 subpopulation by measuring CD3negativeCD4negative cells at 10 uM pretreated with Concanavalin A for 24 hrs followed by compound addition and measured after 48 hrs by flow cytometry analysis (reference value: 0%); assay type: functional; parameters: scale not given: the % may be the effect or the level left
T-cell [7] = assay: Immunosuppressive activity in ConA-induced BALB/c mouse T-lymphocytes assessed as Treg cell subsets by measuring CD25negativeFOXP3positive cells at 5 uM pretreated with Concanavalin A for 24 hrs followed by compound addition and measured after 48 hrs by flow cytometry analysis (reference value: 0.2%); assay type: functional
T-cell [8] = assay: Immunosuppressive activity in BALB/c mouse T-lymphocytes assessed as reduction in ConA-induced CD8 subpopulation by measuring CD3negativeCD8positive cells at 10 uM pretreated with Concanavalin A for 24 hrs followed by compound addition and measured after 48 hrs by flow cytometry analysis (reference value: 0%); assay type: functional; parameters: scale not given: the % may be the effect or the level left
T-cell [9] = assay: Immunosuppressive activity in ConA-induced BALB/c mouse T-lymphocytes assessed as Treg cell subsets by measuring CD25negativeFOXP3negative cells at 5 uM pretreated with Concanavalin A for 24 hrs followed by compound addition and measured after 48 hrs by flow cytometry analysis (reference value: 27.2%); assay type: functional
T-cell [10] = assay: Immunosuppressive activity in BALB/c mouse T-lymphocytes assessed as reduction in ConA-induced CD4 subpopulation by measuring CD3positiveCD4positive cells at 10 uM pretreated with Concanavalin A for 24 hrs followed by compound addition and measured after 48 hrs by flow cytometry analysis (reference value: 87.8%); assay type: functional; parameters: scale not given: the % may be the effect or the level left
T-cell [11] = assay: Immunosuppressive activity in ConA-induced BALB/c mouse T-lymphocytes assessed as Treg cell subsets by measuring CD25positiveFOXP3positive cells at 5 uM pretreated with Concanavalin A for 24 hrs followed by compound addition and measured after 48 hrs by flow cytometry analysis (reference value: 5.7%); assay type: functional
T-cell [12] = assay: Immunosuppressive activity in BALB/c mouse T-lymphocytes assessed as reduction in ConA-induced CD8 subpopulation by measuring CD3positiveCD8negative cells at 5 uM pretreated with Concanavalin A for 24 hrs followed by compound addition and measured after 48 hrs by flow cytometry analysis (reference value: 70.9%); assay type: functional; parameters: scale not given: the % may be the effect or the level left
T-cell [13] = assay: Immunosuppressive activity in ConA-induced BALB/c mouse T-lymphocytes assessed as Treg cell subsets by measuring CD25negativeFOXP3positive cells at 10 uM pretreated with Concanavalin A for 24 hrs followed by compound addition and measured after 48 hrs by flow cytometry analysis (reference value: 0.2%); assay type: functional
T-cell [14] = assay: Immunosuppressive activity in BALB/c mouse T-lymphocytes assessed as reduction in ConA-induced CD8 subpopulation by measuring CD3positiveCD8positive cells at 10 uM pretreated with Concanavalin A for 24 hrs followed by compound addition and measured after 48 hrs by flow cytometry analysis (reference value: 29.1%); assay type: functional; parameters: scale not given: the % may be the effect or the level left
T-cell [15] = assay: Immunosuppressive activity in BALB/c mouse T-lymphocytes assessed as reduction in ConA-induced CD8 subpopulation by measuring CD3negativeCD8negative cells at 10 uM pretreated with Concanavalin A for 24 hrs followed by compound addition and measured after 48 hrs by flow cytometry analysis (reference value: 0%); assay type: functional; parameters: scale not given: the % may be the effect or the level left
T-cell [16] = assay: Immunosuppressive activity in BALB/c mouse T-lymphocytes assessed as reduction in ConA-induced CD8 subpopulation by measuring CD3negativeCD8positive cells at 5 uM pretreated with Concanavalin A for 24 hrs followed by compound addition and measured after 48 hrs by flow cytometry analysis (reference value: 0%); assay type: functional; parameters: scale not given: the % may be the effect or the level left
T-cell [17] = assay: Immunosuppressive activity in ConA-induced BALB/c mouse T-lymphocytes assessed as Treg cell subsets by measuring CD25positiveFOXP3negative cells at 10 uM pretreated with Concanavalin A for 24 hrs followed by compound addition and measured after 48 hrs by flow cytometry analysis (reference value: 66.9%); assay type: functional
T-cell [18] = assay: Immunosuppressive activity in BALB/c mouse T-lymphocytes assessed as reduction in ConA-induced CD8 subpopulation by measuring CD3positiveCD8negative cells at 10 uM pretreated with Concanavalin A for 24 hrs followed by compound addition and measured after 48 hrs by flow cytometry analysis (reference value: 70.9%); assay type: functional; parameters: scale not given: the % may be the effect or the level left
T-cell [19] = assay: Immunosuppressive activity in BALB/c mouse T-lymphocytes assessed as reduction in ConA-induced CD4 subpopulation by measuring CD3negativeCD4positive cells at 5 uM pretreated with Concanavalin A for 24 hrs followed by compound addition and measured after 48 hrs by flow cytometry analysis (reference value: 0%); assay type: functional; parameters: scale not given: the % may be the effect or the level left
T-cell [20] = assay: Immunosuppressive activity in ConA-induced BALB/c mouse T-lymphocytes assessed as Treg cell subsets by measuring CD25negativeFOXP3negative cells at 10 uM pretreated with Concanavalin A for 24 hrs followed by compound addition and measured after 48 hrs by flow cytometry analysis (reference value: 27.2%); assay type: functional
T-cell [21] = assay: Immunosuppressive activity in ConA-induced BALB/c mouse T-lymphocytes assessed as Treg cell subsets by measuring CD25positiveFOXP3negative cells at 5 uM pretreated with Concanavalin A for 24 hrs followed by compound addition and measured after 48 hrs by flow cytometry analysis (reference value: 66.9%); assay type: functional
T-cell [22] = assay: Immunosuppressive activity in BALB/c mouse T-lymphocytes assessed as reduction in ConA-induced CD4 subpopulation by measuring CD3positiveCD4negative cells at 10 uM pretreated with Concanavalin A for 24 hrs followed by compound addition and measured after 48 hrs by flow cytometry analysis (reference value: 12.2%); assay type: functional; parameters: scale not given: the % may be the effect or the level left
T-cell [23] = assay: Immunosuppressive activity in ConA-induced BALB/c mouse T-lymphocytes assessed as Treg cell subsets by measuring CD25positiveFOXP3positive cells at 10 uM pretreated with Concanavalin A for 24 hrs followed by compound addition and measured after 48 hrs by flow cytometry analysis (reference value: 5.7%); assay type: functional
T-cell [24] = assay: Immunosuppressive activity in BALB/c mouse T-lymphocytes assessed as reduction in ConA-induced CD4 subpopulation by measuring CD3positiveCD4positive cells at 5 uM pretreated with Concanavalin A for 24 hrs followed by compound addition and measured after 48 hrs by flow cytometry analysis (reference value: 87.8%); assay type: functional; parameters: scale not given: the % may be the effect or the level left
T-cell [25] = assay: Immunosuppressive activity in BALB/c mouse T-lymphocytes assessed as reduction in ConA-induced CD4 subpopulation by measuring CD3negativeCD4negative cells at 5 uM pretreated with Concanavalin A for 24 hrs followed by compound addition and measured after 48 hrs by flow cytometry analysis (reference value: 0%); assay type: functional; parameters: scale not given: the % may be the effect or the level left

CC1(C)C2CCC1(CS(=O)(=O)O)C(=O)C2 (stereo not given)
IC50 (T-cell [1]): < 0.04 µM | IC50 (B-cell line): < 0.04 µM

CC(=O)O[C@H]1[C@@H]2C(=O)c3c(C)cc(O)c4c3[C@@]1(COC4=O)C1=C2c2c(C)cc(O)c3c2C(C1=O)C1CCCN1C3=O (stereo not given in full)
IC50 (T-cell [1]): > 40 µM | IC50 (B-cell line): > 40 µM

Cc1cc(O)c2c3c1C(=O)[C@@H]1c4c(c(O)c5c6c(c(O)cc(C)c46)C(=O)O5)[C@@]3(COC2=O)[C@H]1O
IC50 (T-cell [1]): > 40 µM | IC50 (B-cell line): > 40 µM

COC(=O)C[C@H]1OC(=O)c2c(O)cc(C)c3c2C1=C(O)C1[C@]24COC(=O)c5c(O)cc(C)c(c52)C(=O)[C@@H]([C@@H]4OC(C)=O)[C@]31OC (stereo not given in full)
IC50 (T-cell [1]): > 40 µM | IC50 (B-cell line): > 40 µM

CC(=O)O[C@H]1[C@@H]2C(=O)c3c(C)cc(O)c4c3[C@@]1(COC4=O)C1=C2c2c(C)cc(O)c3c2[C@@](O)(COC3=O)C1=O
IC50 (T-cell [1]): > 40 µM | IC50 (B-cell line): > 40 µM

Cc1cc(O)c2c3c1C(=O)[C@@H]1c4c(c5oc(=O)ccc5c5cc(O)cc(C)c45)[C@@]3(COC2=O)[C@H]1O
IC50 (T-cell [1]): > 40 µM | IC50 (B-cell line): > 40 µM

Cc1cc(O)c2c3c1C(=O)[C@@H]1c4c(c(O)c5c6c(c(O)cc(C)c46)C(=O)OC5=O)[C@@]3(COC2=O)[C@H]1O
IC50 (T-cell [1]): > 40 µM | IC50 (B-cell line): > 40 µM

COC(=O)C[C@@H]1OC(=O)c2c(O)cc(C)c3c4c(c(O)c1c23)[C@]12COC(=O)c3c(O)cc(C)c(c31)C(=O)[C@H]4[C@@H]2OC(C)=O
IC50 (T-cell [1]): 12.8 µM | IC50 (B-cell line): 8.6 µM

COC(=O)C[C@H]1OC(=O)c2c(O)cc(C)c3c4c(c(O)c1c23)[C@]12COC(=O)c3c(O)cc(C)c(c31)C(=O)[C@H]4[C@@H]2OC(C)=O
IC50 (T-cell [1]): > 40 µM | IC50 (B-cell line): > 40 µM

COC(=O)C[C@@H]1OC(=O)c2c(O)cc(C)c3c4c(c(O)c1c23)[C@]12COC(=O)c3c(O)cc(C)c(c31)C(=O)[C@H]4[C@@H]2O
IC50 (T-cell [1]): > 40 µM | IC50 (B-cell line): > 40 µM

CC(=O)O[C@H]1[C@@H]2C(=O)c3c(C)cc(O)c4c3[C@@]1(COC4=O)c1c(O)c3c4c(c(O)cc(C)c4c12)C(=O)O3
IC50 (T-cell [1]): > 40 µM | IC50 (B-cell line): > 40 µM

Cc1cc(O)c2c3c1C(=O)[C@@H]1C4=C(C(=O)c5cn(CCO)c(=O)c6c(O)cc(C)c4c56)[C@@]3(COC2=O)[C@H]1O
IC50 (T-cell [1]): > 40 µM | IC50 (B-cell line): > 40 µM

CC(=O)O[C@H]1[C@@H]2C(=O)c3c(C)cc(O)c4c3[C@@]1(COC4=O)c1c(O)cc3cc(O)cc(C)c3c12
IC50 (T-cell [1]): > 40 µM | IC50 (B-cell line): > 40 µM

Cc1cc(O)c2c3c1C1=C(C(=O)C3C3CCCN3C2=O)[C@]23COC(=O)c4c(O)cc(C)c(c42)C(=O)[C@H]1[C@@H]3O (stereo not given in full)
IC50 (T-cell [1]): > 40 µM | IC50 (B-cell line): > 40 µM

CO[C@@H]1N(CCO)C(=O)c2c(O)cc(C)c3c2[C@]1(O)C(=O)C1=C3[C@H]2C(=O)c3c(C)cc(O)c4c3[C@]1(COC4=O)[C@H]2O
Activity (T-cell [2]): 23.4% | Activity (T-cell [3]): 39.5% | Activity (T-cell [4]): 0% | Activity (T-cell [5]): 0% | Activity (T-cell [6]): 0% | Activity (T-cell [7]): 0.1% | Activity (T-cell [8]): 0% | Activity (T-cell [9]): 18.1% | Activity (T-cell [10]): 75.9% | IC50 (T-cell [1]): 9.3 µM | Activity (T-cell [11]): 4.6% | Activity (T-cell [12]): 60.5% | Activity (T-cell [13]): 0.3% | Activity (T-cell [14]): 38.8% | Activity (T-cell [15]): 0% | Activity (T-cell [16]): 0% | Activity (T-cell [17]): 76% | Activity (T-cell [18]): 61.2% | Activity (T-cell [19]): 0% | Activity (T-cell [20]): 21.3% | Activity (T-cell [21]): 77.2% | Activity (T-cell [22]): 24.1% | Activity (T-cell [23]): 2.5% | Activity (T-cell [24]): 76.6% | Activity (T-cell [25]): 0% | IC50 (B-cell line): 2.1 µM

Cc1cc(O)c2c3c1C(=O)[C@@H]1c4c(c(O)c5c6c(c(O)cc(C)c46)C(=O)OC5)[C@@]3(COC2=O)[C@H]1O
IC50 (T-cell [1]): > 40 µM | IC50 (B-cell line): > 40 µM

COC(=O)C[C@H]1OC(=O)c2c(O)cc(C)c3c4c(c(O)c1c23)[C@]12COC(=O)c3c(O)cc(C)c(c31)C(=O)[C@H]4[C@@H]2O
IC50 (T-cell [1]): > 40 µM | IC50 (B-cell line): > 40 µM

Cc1cc(O)c2c3c1C(=O)[C@@H]1c4c(c(O)cc5cc(O)cc(C)c45)[C@@]3(COC2=O)[C@H]1O
IC50 (T-cell [1]): > 40 µM | IC50 (B-cell line): > 40 µM
